According to US10434074B2, “Peptide and small molecule agonists of EPHA and uses thereof” (CASE WESTERN RESERVE UNIVERSITY, priority 2004, dated 2019):
Entries after “also recorded” stand apart in the source; their conditions may differ. Where no end group is shown, it is not given here.

Tests used:
EphA2 [1] = molecular target: T1, EphA2 (Homo sapiens, UniProt P29317); assay: EphA2 tyrosine phosphorylation (activation) in PC3 cells, immunoprecipitation and anti-phosphotyrosine blot; format: cell-based; design: We have previously identified EphA2 as the primary EphA kinase expressed in PC-3 cells; endogenous in cells; host or cells: PC-3 (PC3) and DU-145 cells; conditions: for EphA2 activation (agonist function): PC-3 cells, PY99 blot; for EphA2 tyrosine phosphorylation: several different cell lines
Experimental: FIG. 9 illustrates EP1 is an EphA2 Kinase Agonist. PC3 cells (1×10^6 cells/ml) were stimulated with different concentrations of EP1-Fc, GST-EP1, or ephrin-A1-Fc for 10 min. EphA2 was precipitated with anti-EphA2. The immune complex was blotted for PY to detect EphA2 activation (top panel), or for EphA2 to show equal loading (lower panel). Data represents one of three similar experimental results.
FIG. 15 illustrates Identification of EP1 residues critical for EphA2 activation. Four out of five EP1 residues that align with receptor-binding regions of ephrins are critical for EphA2 activation. Mutation to alanine was performed at the indicated positions (see letters in FIG. 15 for reference), and the resultant EP1-Fc mutants were used to stimulate PC3 cells for 10 min at […] for ability to activate EphA2.
PC-3 cells were stimulated with the indicated concentration of dobutamine. EphA2 was immunoprecipitated and tested for activation status by blotting with anti-phosphotyrosine (PY99).
Cells cultured in 6 well plates at 70-80% confluence were stimulated with 0.5 μg/ml Fc, 1 μg/ml epnrinA1-Fc or 20 ng/ml HGF/SF or their combinations as indicated. After stimulation, cells were lysed in RIPA buffer (20 mM Tris, pH7.4, 125 mM NaCl, 20 mM NaF, 0.1% SDS, 10% glycerol, 0.5% sodium deoxycholate, and 1% TX-100, 0.5 mM Na3VO4) containing protease inhibitors (1 mM phenylmethylsulphonyl fluoride, and 2 μg/ml each of aprotinin and leupeptin). Cell lysates were clarified by centrifugation at 13,000 rpm for 5 min. Immunoprecipitation was carried out by adding anti-EphA2 antibody to clarified cell lysates and incubated for 1 hour at 4° C. The immunocomplex was captured using γ-bind beads (Pharmacia). Cell lysates or precipitated proteins were separated on 4-20% Tris-glycine gels (Invitrogen) and transferred to Immobilon-P PVDF membranes (Millipore). […] For quantitative analysis, band densities were measured using KODAK 1D imagine analysis software (Eastman Kodak Company).

[2] = molecular target: EphA2 kinase ligand-binding domain (Homo sapiens, UniProt P29317); assay: BIAcore binding to immobilized EphA2 ligand-binding domain; conditions: EphA2 LBD immobilized on sensor chip
Experimental: A) EphA2 activation by labetalol. […] The increasing concentrations of labetalol (0, […], 1.25 mM and 2.5 mM) were injected over EphA2 kinase ligand-binding domain immobilized on the sensor chip.
A) Doxazosin activates EphA2.

EphA2 [3] = conditions: several breast cancer cell lines; cited from earlier work
GFP-PC-3 cells = assay: PC3 xenograft growth in nude mice; format: in vivo; design: s.c. tumor growth: dose or concentration left out as unconfirmed; conditions: for s.c. tumor growth: vs human IgG
Excerpt: Frozen sections were stained with biotinylated rabbit anti-human Fc, and HRP-conjugated streptoavidin.

PC3 cells = assay: Cell rounding; format: cell-based, human; conditions: 10 min
Experimental: PC3 cells cultured on coverslips were stimulated with the indicated concentrations of ephrinA1-Fc, EP1-Fc of Fc for 10 min. Cells were then fixed and photographed.

[4] = system: pRNS-1 prostate epithelial cells; assay: Clonal growth, crystal violet staining; format: cell-based; conditions: 10 days
Experimental: About 80 pRNS-1 prostate epithelial cells were seeded into each well on 12-well dishes in the presence of indicated concentrations of ephrin-A1-Fc. Cells were cultured for 10 days. Clonal growth was visualized by crystal violet staining.

EphA2 [5] = molecular target: T1, EphA2; assay: Precipitation of 125I-labeled PC3 cell proteins / Western blot (binding specificity); design: We have previously identified EphA2 as the primary EphA kinase expressed in PC-3 cells; endogenous in cells; host or cells: PC-3 (PC3); conditions: PC3 cell lysates
Experimental: FIGS. 8(A-B) illustrate Specific Binding of EP1-Fc to EphA2 Receptor. A: ^125I labeling of PC3 cells. PC3 cells (10×10^6) were labeled with 125I (0.5 mCi). Then, cell lysates were incubated with EP1-Fc fusion peptide, ephrin-A1-Fc (EA1-Fc), or human Fc as indicated. Equal amount of cell lysate was used in each experimental group. […] B: Western Blotting Analysis. PC3 cell lysates were incubated with EP1-Fc fusion protein, ephrin-A1 protein, or human Fc. The immune complexes were blotted with anti-EphA2. EP1 specifically precipitated EphA2.

PC3 or pRNS-1 cells = assay: 3H-thymidine incorporation; format: cell-based; conditions: overnight stimulation
Experimental: Subconfluent PC3 or pRNS-1 cells were stimulated with the indicated reagents overnight. Next day cells were labeled with ^3H-thymidine for 2 hours. ^3H-thymidine incorporation into isolated DNA synthesis was determined by scintillation counting.

ERK1/2 = assay: Inhibition of ERK1/2 (MAPK) in PC3 cells, anti-p-ERK1/2 blot; format: cell-based, human
Excerpt: FIG. 11 illustrates Activation of EphA2 downstream signaling by EP1-Fc. PC3 cells were stimulated with the indicated concentrations of ephrinA1-Fc or EP1-Fc fusion proteins and lysed in RIPA buffer. EphA2 activation status was examined by immunoprecipiting EphA2 and blotting for phosphotyrosine or EphA2 itself (top panel). Inhibition of ERK1/2, a downstream signaling event of EphA2 characterized in our lab, was examined by blotting total cell lysates with anti-p-ERK1/2.

[6] = system: integrin-mediated cell adhesion; assay: Integrin-mediated cell adhesion to fibronectin; format: cell-based

T1 sequence (P29317 24-976): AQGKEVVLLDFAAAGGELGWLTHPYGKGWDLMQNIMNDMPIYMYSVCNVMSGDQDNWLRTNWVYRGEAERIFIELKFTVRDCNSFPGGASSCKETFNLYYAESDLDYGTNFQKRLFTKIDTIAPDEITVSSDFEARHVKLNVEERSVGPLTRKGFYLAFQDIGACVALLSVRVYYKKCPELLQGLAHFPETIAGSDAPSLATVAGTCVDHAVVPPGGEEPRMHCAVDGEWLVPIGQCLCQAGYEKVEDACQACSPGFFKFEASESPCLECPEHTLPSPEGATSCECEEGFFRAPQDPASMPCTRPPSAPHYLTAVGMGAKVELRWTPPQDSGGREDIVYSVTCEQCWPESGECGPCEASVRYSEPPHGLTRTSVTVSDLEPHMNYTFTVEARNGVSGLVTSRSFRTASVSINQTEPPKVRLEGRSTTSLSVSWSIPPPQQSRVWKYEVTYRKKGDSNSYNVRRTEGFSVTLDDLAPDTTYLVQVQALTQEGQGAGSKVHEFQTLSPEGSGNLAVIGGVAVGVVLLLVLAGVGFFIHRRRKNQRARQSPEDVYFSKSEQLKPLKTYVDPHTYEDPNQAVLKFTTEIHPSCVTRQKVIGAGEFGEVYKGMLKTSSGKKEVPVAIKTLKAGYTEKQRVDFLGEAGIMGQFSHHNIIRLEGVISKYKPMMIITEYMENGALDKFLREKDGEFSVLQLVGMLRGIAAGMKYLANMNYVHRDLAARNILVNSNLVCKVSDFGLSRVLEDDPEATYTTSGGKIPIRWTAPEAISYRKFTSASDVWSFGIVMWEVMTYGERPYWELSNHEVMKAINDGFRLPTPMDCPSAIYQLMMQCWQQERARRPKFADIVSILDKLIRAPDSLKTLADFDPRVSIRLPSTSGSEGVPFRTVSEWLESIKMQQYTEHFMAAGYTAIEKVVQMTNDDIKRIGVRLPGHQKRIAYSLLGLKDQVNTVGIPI
EphA2 kinase ligand-binding domain, sequence (P29317 28-206 limits assumed): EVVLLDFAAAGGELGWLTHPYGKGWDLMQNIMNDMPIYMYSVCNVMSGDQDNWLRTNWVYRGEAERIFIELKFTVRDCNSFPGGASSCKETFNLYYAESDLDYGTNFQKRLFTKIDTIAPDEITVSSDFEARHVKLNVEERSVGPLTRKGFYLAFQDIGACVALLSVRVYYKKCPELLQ

CC(CCc1ccc(O)cc1)NCCc1ccc(O)c(O)c1 (stereo not shown) [Dobutamine]
EphA2 activation (agonist function) (EphA2 [1]): EphA2 agonists

COc1cc2nc(N3CCN(C(=O)C4COc5ccccc5O4)CC3)nc(N)c2cc1OC (stereo not shown) [Doxazosin]
EphA2 activation (agonist function) (EphA2 [1]): EphA2 agonists | BIAcore binding to EphA2 [2]: direct binding

CC(CCc1ccccc1)NCC(O)c1ccc(O)c(C(N)=O)c1 (stereo not shown) [Labetalol]
EphA2 activation (agonist function) (EphA2 [1]): EphA2 agonists | BIAcore binding to EphA2 [2]: binding curves for interaction of labetalol with EphA2 kinase

N#CC(=C(/N)Sc1ccccc1N)/C(C#N)=C(/N)Sc1ccccc1N [U1026]
EphA2 expression (EphA2 [3]): reduced EphA2 expression

(di-meo-isoquinolin-1-ylmethyl)-et-di-meo-pyrido(2,1-a)isoquinolin, hydrobromide S120103
EphA2 activation (agonist function) (EphA2 [1]): EphA2 agonistic compound

EP1-Fc: recombinant EP1 fused to Fc, dimeric (RRCVWSTNVYSMEPALFCAA; not fully specified; cysteine pairing not given here; also: fused to Fc, dimeric)
targeting to tumors (GFP-PC-3 cells; frozen sections stained with anti-human Fc): target to GFP-PC-3 tumors | tumor growth after three weeks of treatment (GFP-PC-3 cells; i.p.): lack of effects after three weeks of treatment | s.c. tumor growth (GFP-PC-3 cells; i.p.): moderate inhibitory effects on PC3 xenograft growth | s.c. tumor growth (GFP-PC-3 cells; i.p., listed as Ep1-Fc): could have suppressive effect on the growth of prostate cancer xenograft | EphA2 tyrosine phosphorylation (EphA2 [1]): induces dose-dependent EphA2 tyrosine phosphorylation | cell morphology (rounding) (PC3 cells): adapt a round morphology; also recorded: induced PC3 cell rounding | clonal cell growth [4]: Inhibition of cell growth | specificity of binding among cell surface proteins (EphA2 [5]): only bound to EphA2 | cell proliferation / growth (PC3 or pRNS-1 cells): Inhibition of cell proliferation

EphA2-binding peptide from X2CX14CX2 phage display library, SEQ ID NO: 1, RRCVWSTNVYSMEPA LFCAA (RRCVWSTNVYSMEPALFCAA) [EP1]
mitogen-activated protein kinase (MAPK) (ERK1/2): inhibited mitogen-activated protein kinase | EphA2 tyrosine phosphorylation (EphA2 [1]): binds to EphA2 without activating it | specificity of binding among cell surface proteins (EphA2 [5]): EphA2 was the only cell surface protein that was targeted by EP1 | integrin function and cell adhesion [6]: suppressed integrin function and causes reduced cell adhesion | cell proliferation / growth (PC3 or pRNS-1 cells): inhibited cancer cell growth

GST-EP1: recombinant EP1 fused to GST (RRCVWSTNVYSMEPALFCAA; cysteine pairing not given here; also: fused to GST)
EphA2 tyrosine phosphorylation (EphA2 [1]): induces dose-dependent EphA2 tyrosine phosphorylation
